Reference: the CheMixHub viscosity set

Experiment: xn = mol fraction of the nth substance listed

ClC(Cl)C(Cl)Cl + CCCCCCC
303.15 K, 101 kPa
Conditions | viscosity [mPa·s]
x1 = 0.1397 | 0.398
x1 = 0.2476 | 0.472
x1 = 0.3744 | 0.564
x1 = 0.4722 | 0.643
x1 = 0.5731 | 0.727
x1 = 0.6565 | 0.8
x1 = 0.7428 | 0.896
x1 = 0.8309 | 1.023
x1 = 0.9008 | 1.165
x1 = 0.9406 | 1.267

COC(=O)OC + CCCCCCCC
298.15 K, 101.3 kPa
Conditions | viscosity [mPa·s]
x1 = 0.0701 | 0.503
x1 = 0.1113 | 0.495
x1 = 0.2006 | 0.483
x1 = 0.2669 | 0.476
x1 = 0.2955 | 0.476
x1 = 0.4863 | 0.481
x1 = 0.6318 | 0.494
x1 = 0.6706 | 0.499
x1 = 0.7712 | 0.517
x1 = 0.8602 | 0.543
x1 = 0.9459 | 0.569

COCCOCCOC + CCCCCCCC
viscosity [mPa·s], 101.33 kPa
Conditions | x1 = 0.0946 | x1 = 0.203 | x1 = 0.2985 | x1 = 0.3956 | x1 = 0.4955 | x1 = 0.5945 | x1 = 0.697 | x1 = 0.7972 | x1 = 0.8977
298.15 K | 0.515 | 0.535 | 0.561 | 0.594 | 0.636 | 0.681 | 0.748 | 0.807 | 0.884
303.15 K | 0.485 | 0.503 | 0.536 | 0.557 | 0.593 | 0.636 | 0.686 | 0.746 | 0.82
308.15 K | 0.458 | 0.475 | 0.501 | 0.523 | 0.556 | 0.596 | 0.641 | 0.695 | 0.762
313.15 K | 0.432 | 0.448 | 0.473 | 0.493 | 0.524 | 0.559 | 0.604 | 0.65 | 0.712
318.15 K | 0.41 | 0.425 | 0.446 | 0.466 | 0.493 | 0.523 | 0.575 | 0.61 | 0.667

ClC(Cl)C(Cl)Cl + CCCCCCCC
303.15 K, 101 kPa
Conditions | viscosity [mPa·s]
x1 = 0.1642 | 0.536
x1 = 0.2409 | 0.562
x1 = 0.3162 | 0.61
x1 = 0.3944 | 0.655
x1 = 0.4996 | 0.725
x1 = 0.5896 | 0.794
x1 = 0.6696 | 0.864
x1 = 0.7658 | 0.976
x1 = 0.8847 | 1.167
x1 = 0.9045 | 1.208

COCCOCCOC + CCCCCCCCC
viscosity [mPa·s], 101.33 kPa
Conditions | x1 = 0.0991 | x1 = 0.2003 | x1 = 0.3005 | x1 = 0.3982 | x1 = 0.5023 | x1 = 0.5963 | x1 = 0.6999 | x1 = 0.7997 | x1 = 0.897
298.15 K | 0.642 | 0.64 | 0.665 | 0.691 | 0.712 | 0.747 | 0.794 | 0.836 | 0.898
308.15 K | 0.559 | 0.56 | 0.579 | 0.6 | 0.618 | 0.647 | 0.685 | 0.718 | 0.768
318.15 K | 0.49 | 0.49 | 0.507 | 0.523 | 0.538 | 0.561 | 0.591 | 0.62 | 0.662

ClC(Cl)C(Cl)Cl + CCCCCCCCC
303.15 K, 101 kPa
Conditions | viscosity [mPa·s]
x1 = 0.1552 | 0.651
x1 = 0.2636 | 0.704
x1 = 0.3332 | 0.742
x1 = 0.3926 | 0.77
x1 = 0.5196 | 0.836
x1 = 0.5976 | 0.879
x1 = 0.6903 | 0.943
x1 = 0.7468 | 0.991
x1 = 0.8858 | 1.163
x1 = 0.9204 | 1.235

COCCOCCOC + CCCCCCCCCC
viscosity [mPa·s], 101.33 kPa
Conditions | x1 = 0.1008 | x1 = 0.2018 | x1 = 0.3025 | x1 = 0.3984 | x1 = 0.4993 | x1 = 0.6592 | x1 = 0.701 | x1 = 0.7987 | x1 = 0.9013
298.15 K | 0.798 | 0.788 | 0.787 | 0.79 | 0.8 | 0.834 | 0.846 | 0.869 | 0.915
308.15 K | 0.689 | 0.682 | 0.679 | 0.68 | 0.688 | 0.716 | 0.726 | 0.746 | 0.784
318.15 K | 0.597 | 0.59 | 0.589 | 0.589 | 0.597 | 0.618 | 0.627 | 0.643 | 0.674

COCCOCCOC + CCCCCCCCCCCC
viscosity [mPa·s], 101.33 kPa
Conditions | x1 = 0.1009 | x1 = 0.1998 | x1 = 0.2993 | x1 = 0.4034 | x1 = 0.5021 | x1 = 0.6015 | x1 = 0.7024 | x1 = 0.8008 | x1 = 0.9003
298.15 K | 1.236 | 1.157 | 1.11 | 1.074 | 1.043 | 1.02 | 1.001 | 0.981 | 0.98
308.15 K | 1.038 | 0.976 | 0.94 | 0.909 | 0.884 | 0.865 | 0.849 | 0.837 | 0.835
318.15 K | 0.88 | 0.83 | 0.801 | 0.78 | 0.757 | 0.743 | 0.728 | 0.72 | 0.719

COCCOCCOC + CCCCCCCCCCCCCC
viscosity [mPa·s], 101.33 kPa
Conditions | x1 = 0.0987 | x1 = 0.2023 | x1 = 0.302 | x1 = 0.4002 | x1 = 0.5033 | x1 = 0.594 | x1 = 0.6981 | x1 = 0.7958 | x1 = 0.8986
298.15 K | 1.835 | 1.672 | 1.55 | 1.448 | 1.345 | 1.275 | 1.187 | 1.113 | 1.044
308.15 K | 1.503 | 1.38 | 1.29 | 1.205 | 1.122 | 1.068 | 0.996 | 0.938 | 0.888
318.15 K | 1.248 | 1.153 | 1.07 | 1.009 | 0.945 | 0.902 | 0.848 | 0.8 | 0.76

COCCOCCOC + CCCCCCCCCCCCCCCC
viscosity [mPa·s], 101.33 kPa
Conditions | x1 = 0.1013 | x1 = 0.2067 | x1 = 0.3071 | x1 = 0.403 | x1 = 0.5078 | x1 = 0.6013 | x1 = 0.7004 | x1 = 0.7997 | x1 = 0.9021
298.15 K | 2.629 | 2.359 | 2.101 | 1.9 | 1.721 | 1.568 | 1.4 | 1.262 | 1.106
308.15 K | 2.107 | 1.885 | 1.712 | 1.552 | 1.414 | 1.29 | 1.173 | 1.058 | 0.934
318.15 K | 1.69 | 1.515 | 1.385 | 1.288 | 1.178 | 1.08 | 0.984 | 0.89 | 0.799
